Data set [1] has as its system T-ALL cell lines. As to the kind of experiment: Uptake of fluorescent folate probes by flow cytometry in T-ALL cells. The format is cell-based, human. From the text: To assess functional engagement of the folate receptor on T-ALL cells, we generated fluorescence-ragged folic acid probes. FL-TAMRA and FL-FITC, as tool compounds (FIG. 7, panel c). […] Taken together, these observations indicate that functional FR2 expression is increased in T-ALL compared to normal cells, further supporting a rationale for folate-mediated delivery in leukemia.
To explore the mechanism of binding and delivery of folate-conjugates in T-ALL, we performed competition and temperature sensitivity studies of the FL-FITC probe. The T-ALL cell Sine RPMI 8402 was engineered to overexpress either FR1 or FR2 and was then treated with increasing concentrations of FL-FITC. […] We next addressed whether folic acid could compete with the FL-FITC probe for uptake. T-ALL cells were grown in medium depleted of folic acid for 48 hours, treated with FL-FITC (1 or 10 μM), and assessed by flow cytometry. […]
In order to validate the delivery of the Thap-OH, LCMS analysis of the cell lysate and the media was used to detect the presence of both Folate-Thap (FT) and Thap-OH. […] Both Folate-FITC, suitable for flow cytometry studies, and Folate-TMARA, suitable for high-throughput fluorescence plate readers, were evaluated in vitro to determine the delivery mechanism.
On the technique in general: Flow cytometry measures light scatter and fluorescence of single cells or particles in a stream.

In data set [2] the test system is NOTCH1. As to the kind of experiment: NOTCH1 cell surface staining by flow cytometry. The data set is classed as cell-based, human. The following applies: T-ALL cells; for NOTCH1 expression on the cell surface: 24 hours. The text has this:
(§1) We previously described that the SERCA inhibitors thapsigargin and cyclopiazonic acid impair NOTCH1 maturation leading to an accumulation of full-length, unprocessed polypeptides in the endoplasmic reticulum/Golgi subcellular compartment. An immediate consequence of SERCA inhibition is a decrement in NOTCH1 protein display on the surface of T-ALL cells. […] To further support the hypothesis that Thap-OH impairs mutant NOTCH1 maturation, we evaluated levels of full-length, transmembrane and activated NOTCH1 (ICN1) by WB. Lysates from T-ALL cell lines treated with 1 μM Thap-OH were immunoblotted with an antibody specific for the cytoplasmic portion of NOTCH1 that recognizes both unprocessed NOTCH1 (FL-N1) (˜270 kDa) and the furin-processed transmembrane subunit (TM-N1) (˜110 kDa).
(§2) The NOTCH loss was measured via flow cytometry. […] The recapitulation of the thapsigargin effect by JQ-FT is hypothesized to be due to the delivery strategy introduced by folate. […] Here cell growth was assessed using the Promega Cell-Titer Glo ATP-based assay (Promega, Madison, Wis., USA). Luminescence was measured using a Fluostar Omega instrument (BMG-labtech, Ortenberg, Germany).

The target of data set [3] is T1, SERCA2 (Homo sapiens, UniProt P16615).
T1 construct: Lysates from T-ALL cells (ALL/SIL) were co-treated with the indicated concentrations of biotinylated thapsigargin or Thap-OH; endogenous in cells; host or cells: ALL/SIL T-ALL cells (lysate)
T1 sequence (P16615 whole entry): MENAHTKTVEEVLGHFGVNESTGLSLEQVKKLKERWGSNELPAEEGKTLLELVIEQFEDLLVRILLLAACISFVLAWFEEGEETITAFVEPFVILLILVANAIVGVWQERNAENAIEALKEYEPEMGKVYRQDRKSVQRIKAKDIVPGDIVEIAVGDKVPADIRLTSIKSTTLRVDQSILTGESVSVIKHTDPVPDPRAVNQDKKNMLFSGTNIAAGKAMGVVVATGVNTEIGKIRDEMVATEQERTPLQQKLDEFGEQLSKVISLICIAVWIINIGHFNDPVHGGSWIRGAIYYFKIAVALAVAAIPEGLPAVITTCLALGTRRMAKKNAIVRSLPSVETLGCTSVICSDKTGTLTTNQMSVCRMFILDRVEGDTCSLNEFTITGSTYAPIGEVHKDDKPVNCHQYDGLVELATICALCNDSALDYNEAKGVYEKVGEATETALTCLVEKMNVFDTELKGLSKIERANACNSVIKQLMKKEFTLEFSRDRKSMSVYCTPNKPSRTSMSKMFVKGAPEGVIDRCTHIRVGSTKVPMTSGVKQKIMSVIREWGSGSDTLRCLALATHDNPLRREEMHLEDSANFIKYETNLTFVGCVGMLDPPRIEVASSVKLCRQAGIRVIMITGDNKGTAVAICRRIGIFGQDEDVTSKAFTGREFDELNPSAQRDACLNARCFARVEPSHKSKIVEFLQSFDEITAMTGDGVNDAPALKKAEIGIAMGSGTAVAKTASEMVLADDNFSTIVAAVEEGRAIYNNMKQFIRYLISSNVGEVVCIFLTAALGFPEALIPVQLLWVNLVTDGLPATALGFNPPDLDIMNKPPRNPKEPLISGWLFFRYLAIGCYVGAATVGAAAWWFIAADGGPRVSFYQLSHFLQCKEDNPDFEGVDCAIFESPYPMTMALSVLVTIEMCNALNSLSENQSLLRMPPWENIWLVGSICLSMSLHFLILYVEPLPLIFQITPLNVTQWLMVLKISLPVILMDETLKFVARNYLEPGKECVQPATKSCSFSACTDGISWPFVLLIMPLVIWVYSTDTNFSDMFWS
Briefly: Competitive pull-down with Thap-Biotin in T-ALL lysates, immunoblot. The data set is classed as binding. The settings on record: ALL/SIL lysates, increasing concentrations of free Thap-OH. As for the experimental part: (§3) Lysates from T-ALL cells (ALL/SIL) were co-treated with the indicated concentrations of biotinylated thapsigargin or Thap-OH for 6 hours and subjected to streptavidin pulldown for 24 hours. The immunoblot was stained with SERCA2 and SERCA3 antibodies. […] Statistical significance for mutated vs WT (*P≤:0.05, **P≤0.01) was determined by one-way ANOVA with Bonferroni's correction for multiple comparison testing. […] NOTCH1 (N1) was detected with an antibody against the C-terminus of NOTCH1 that recognizes the […] NOTCH1 transmembrane subunit (TM) and the unprocessed NOTCH1 precursor (FL). GAPDH was used as loading control. […] Immunoblot was stained with an antibody against FR2. Vinculin was used as a loading control.
(§4) To test the hypothesis that Thap-OH targets SERCA in T-ALL cells, we first performed a competitive pull-down assay in which protein lysates were treated with a novel biotinylated derivative of thapsigargin (Thap-Biotin), alone or in the presence of increasing concentrations of free, competitive Thap-OH.
Background: A western blot detects proteins with antibodies after separation by electrophoresis.

In data set [4] the target is T2, SERCA3 (Homo sapiens, UniProt Q93084).
T2 construct: Lysates from T-ALL cells (ALL/SIL) were co-treated with the indicated concentrations of biotinylated thapsigargin or Thap-OH; endogenous in cells; host or cells: ALL/SIL T-ALL cells (lysate)
T2 sequence (Q93084 whole entry): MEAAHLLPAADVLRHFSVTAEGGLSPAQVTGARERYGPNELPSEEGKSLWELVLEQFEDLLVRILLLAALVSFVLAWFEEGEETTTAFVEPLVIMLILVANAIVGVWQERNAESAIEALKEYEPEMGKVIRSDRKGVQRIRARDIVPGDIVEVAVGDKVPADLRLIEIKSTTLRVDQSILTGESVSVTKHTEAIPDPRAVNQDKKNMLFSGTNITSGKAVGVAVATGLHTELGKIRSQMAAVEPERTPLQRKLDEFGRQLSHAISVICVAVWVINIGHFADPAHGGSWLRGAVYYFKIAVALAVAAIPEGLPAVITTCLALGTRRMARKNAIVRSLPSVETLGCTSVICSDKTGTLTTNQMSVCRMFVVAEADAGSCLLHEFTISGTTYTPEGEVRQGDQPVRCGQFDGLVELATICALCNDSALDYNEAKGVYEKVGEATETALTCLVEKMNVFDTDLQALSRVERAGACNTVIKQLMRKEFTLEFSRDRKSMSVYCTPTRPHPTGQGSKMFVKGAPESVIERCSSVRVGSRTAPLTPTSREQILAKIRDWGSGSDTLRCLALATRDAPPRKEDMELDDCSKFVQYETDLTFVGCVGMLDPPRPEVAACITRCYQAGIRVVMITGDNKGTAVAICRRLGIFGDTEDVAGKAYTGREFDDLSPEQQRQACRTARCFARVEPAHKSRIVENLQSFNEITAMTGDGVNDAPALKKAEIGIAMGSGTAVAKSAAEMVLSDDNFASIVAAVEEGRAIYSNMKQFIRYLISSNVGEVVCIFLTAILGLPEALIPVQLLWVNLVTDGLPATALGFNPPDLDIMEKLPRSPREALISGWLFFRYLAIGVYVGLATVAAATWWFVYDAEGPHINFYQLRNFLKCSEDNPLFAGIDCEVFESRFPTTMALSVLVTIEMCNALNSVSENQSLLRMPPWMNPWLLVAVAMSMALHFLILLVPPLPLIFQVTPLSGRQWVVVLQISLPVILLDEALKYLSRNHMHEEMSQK
Described as above. The data set is classed as binding. The following applies: ALL/SIL lysates, increasing concentrations of free Thap-OH. The method, then:
as §3, §4

For data set [5], the system named is T-ALL cell lines. As to the kind of experiment: T-ALL cell viability / growth (ATP content, Cell-Titer Glo). The data set is classed as cell-based, human. The following applies: 72 hours. As for the experimental part: Thus, cell lines carrying NOTCH1 alleles with HD domain, mutations were more sensitive to Thap-OH than cells with WT NOTCH1 alleles.
As a further test of the idea that JQ-FT acts by preventing NOTCH1 activation in a manner similar to thapsigargin, the NOTCH1-dependent T-ALL cell lines RPMI-8402 were transduced with empty MigRI vector or with ICN1, which lies downstream of the γ-secretase cleavage step in Notch activation. Viral supernatant production and retroviral infections were performed as described for MigRI retroviral vectors (Aster, J. C., et al. “Essential roles for ankyrin repeat and transactivation domains in induction of T-cell leukemia by NOTCH1.” Mol. Cell. Biol. 2000; 20:7505-7515). Transduction efficiency for MigRI was monitored by assessing GFP expression with a FACScan flow cytometer (BD, Franklin Lakes, N.J., USA) (Aster et al., Mol. Cell. Biol. 2000; 20:7505-7515). After viral infection, GFP-positive cells were sorted by flow cytometry with a FACSAria II (BD, Franklin Lakes, N.J., USA). […] Therefore, JQ-FT can recapitulate the Thapsigargin effect with the delivery mechanism of folate.
as §2
The effects of JQ-FT in a panel of T-ALL cell lines that contain activating mutations in the HD domain of NOTCH1 and/or protein stabilizing deletions within the PEST degradation domain.

Data set [6] in a line: LCMS analysis of cell lysate and media. The settings on record: only after cells were treated with FT. The format is in vitro ADME. The method, then:
In order to validate the delivery of the Thap-OH, LCMS analysis of the cell lysate and the media was used to detect the presence of both Folate-Thap (FT) and Thap-OH. […] To directly visualize the folate delivery of a small molecule, folic acid derivatives with appended fluorophores were designed. Both Folate-FITC, suitable for flow cytometry studies, and Folate-TMARA, suitable for high-throughput fluorescence plate readers, were evaluated in vitro to determine the delivery mechanism.

In data set [7] the test system is NOTCH1. As to the kind of experiment: NOTCH1 processing and activation by western blot (FL-N1, TM-N1, ICN1). The data set is classed as cell-based, human.
Excerpt: as §1
Both Folate-Thap (JQ-FT) and Thap-OH were tested in T-ALL cell lines with 24 h treatment. […] Lysates were prepared after treatment with indicated doses of thapsigargin, JQ-FT or Thap-OH for 24 hr. The blot shown was stained with an antibody against the C-terminus of NOTCH1 that recognizes both the furin-processed NOTCH1 transmembrane subunit (TM) and the unprocessed NOTCH1 precursor (FL) (FIG. 2A). GAPDH was used as a loading control. Western blots were stained with antibodies specific for γ-secretase-cleaved NOTCH 1 ([…], Cell Signaling, Beverly, Mass., USA), or the C-terminus of NOTCH1 (SC-6014 (C-20) Santa Cruz Biotechnology, Santa Cruz, Calif., USA). Control stains were carried out with antibodies specific for GAPDH (137179, Santa Cruz Biotechnology). Blots were developed with anti-rabbit-HRP (NA9340V, Amersham, Pittsburgh, Pa., USA) or anti-mouse-HRP (NA9340V or NA9310V, Amersham). Staining was quantified using ImageQuant TI V 7.0 (GE Health Care, Piscataway, N.J., USA).

The test system of data set [8] is FR2. Briefly: FR2 expression by western blot after Thap-OH. The data set is classed as cell-based, human. The following applies: T-ALL cell lines, increasing concentrations of Thap-OH, 24 hours. As for the experimental part:
Thapsigargin is a known inducer of the unfolded protein response (UPR). As such, its derivatives may trigger a cellular response that affects the stable expression or trafficking of folate receptors. To exclude that FR2 is a target of UPR, we treated T-ALL cell lines with increasing concentrations of Thap-OH for 24 hours.

Entries after “also recorded” stand apart in the source; their conditions may differ.

Regarding `Nc1nc2ncc(CNc3ccc(C(=O)N[C@@H](CCC(=O)O)C(=O)O)cc3)nc2c(=O)[nH]1` [folic acid], the “competition of free folic acid with folate derivatives for uptake” value in data set [1] (free folic acid added to T-ALL culture) was “competed away the folate derivatives; also recorded: competes with folate-FITC”.

With `CCCCC[C@@H](O)[C@H]1C(=O)O[C@H](C)[C@@H](O)/C=C/C=C/C=C/C=C/C=C(\C)[C@@H](O)C[C@H](O)C[C@H](O)C[C@H](O)C[C@H](O)C[C@H](O)C[C@@H]1O` [filipin], the “mean percentage reduction of FITC fluorescence signal” value in data set [1] (four T-ALL cell lines pretreated with 10 μM filipin, 10 μM FL-FITC) stood at 38.9±2.5 percentage.

Turning to `C/C=C(/C)C(=O)O[C@H]1C(C)=C2[C@H]([C@@H]1OC(=O)CCCCCCC)[C@@](C)(OC(C)=O)C[C@H](OC(=O)CCC)[C@@]1(O)[C@H]2OC(=O)[C@@]1(C)O` [thapsigargin, Thapsigargin, reference compound], in data set [2], the “NOTCH1 expression on the cell surface” value was “concentration-dependent reduction in NOTCH1 expression on the cell surface”.

Turning to `C/C=C(/C)C(=O)O[C@H]1C(C)=C2[C@H]([C@@H]1OC(=O)CCCCCCC)[C@@](C)(OC(C)=O)C[C@H](O)[C@@]1(O)[C@H]2OC(=O)[C@@]1(C)O` [Thap-OH, 8-O-debutanoylthapsigargin], in data set [3], the “competition with biotinylated thapsigargin for SERCA2” value was “competed off biotinylated thapsigargin”. For the same molecule, the “competition with biotinylated thapsigargin for SERCA3” value in data set [4] is recorded as “competed off biotinylated thapsigargin”. Besides, in data set [2], the “effect on cell surface NOTCH1 compared with thapsigargin” value was “less potent than the natural product; also recorded: reduced effect” and the “NOTCH1 expression on the cell surface” value was “concentration-dependent reduction in NOTCH1 expression on the cell surface; also recorded: show NOTCH loss”. Also, the T-ALL cell viability entry in data set [5] (Thap-OH, dose-ranging ATP content assays) is given as “decrease in T-ALL cell viability”. In data set [5] (mutated (ALL/SIL, DND41, PF382, RPMI 8402) vs WT (Loucy, MOLT16, SUPT11)), the “sensitivity of NOTCH1 mutant versus WT T-ALL cells” value is “mutant T-ALL cells were more sensitive to the effects of Thap-OH than NOTCH1 WT cells”. The “detection of released Thap-OH in cell lysate” value in data set [6] is given as “detected in cell lysate”. Besides, the “furin-processed transmembrane NOTCH1 subunit (TM-N1) level” value in data set [7] (T-ALL cell lines with HD mutations, 24 h, Thap-OH at 1 μM) is “reduced the levels of the furin-processed transmembrane NOTCH1 subunit”. For the same molecule, in data set [7] (T-ALL cell lines, 24 h), the ICN1 level result is reported as “decreased ICN1 levels” and the “unprocessed full-length NOTCH1 (FL-N1) level” value is given as “not the unprocessed full-length NOTCH1 precursor”. Moreover, in data set [7] (T-ALL cell lines, 24 h treatment), the “activity on NOTCH1 processing relative to JQ-FT” value is reported as “much lower activity”. Besides, the “NOTCH1 maturation in NOTCH1 WT cell lines” value in data set [7] (WT cell lines (Loucy, MOLT16), concentrations tested) is recorded as “no effect on NOTCH1 maturation in the WT cell lines”. The FR2 expression result in data set [8] was “No change in FR2 expression”.

The values are drawn from patent US10525139B2, “Folate-conjugated molecules for delivery of toxic small molecule inhibitors to cancer cells and methods of use” (priority 2014, dated 2020).
